Tested on: HIV-1 (IIIB)
Test: Antiviral (HIV) assay in MT-4 cells
Assay type: cell-based
Settings: Human immunodeficiency virus 1, MT4, 120 h; HIV-1 IIIB in MT-4 cells, 5 days incubation, Cell Titer Glo; average of at least two independent experiments
Description: Example 104: Antiviral (HIV) Assay in MT-4 Cells
Compounds were tested in a high-throughput 384-well assay format for their ability to inhibit the replication of HIV-1 (IIIB) in MT-4 cells. Compounds were serially diluted (1:3) in DMSO on 384-well polypropylene plates and further diluted 200-fold into complete RPMI media (10% FBS, 1% P/S) using the Biotek Micro Flow and Labcyte ECHO acoustic dispenser. Each plate contained up to 8 test compounds, with negative (no drug) and positive (5 μM AZT) controls. MT-4 cells were pre-treated with 10 μL of either RPMI (mock-infected) or a fresh 1:250 dilution of HIV-1 IIIB concentrated virus stock. Infected and uninfected MT-4 cells were further diluted in complete RPMI media and added to each plate using a Micro Flow dispenser. After 5 days incubation in a humidified and temperature-controlled incubator (37° C.), Cell Titer Glo (Promega) was added to the assay plates and chemiluminescence read using an Envision plate-reader. EC50 values were defined as the compound concentration that causes a 50% decrease in luminescence signal and were calculated using a sigmoidal dose-response model to generate curve fits and are shown in Table 1.

EC50 [nM] | Structure (SMILES)
6 | C[C@H](Cn1cnc2c(N)ncnc21)OCP(=O)(NC(C)(C)C(=O)OCC12CCC(CC1)C2)NC(C)(C)C(=O)OCC12CCC(CC1)C2 [Example 87, Bis(bicyclo[2.2.1]heptan-1-ylmethyl) 2,2′-(((((1-(6-amino-9H-purin-9-yl)propan-2-yl)oxy)methyl)phosphoryl)bis(azanediyl))(R)-bis(2-methylpropanoate)]
23 | CCC[C@H]1CC[C@H](COC(=O)C(C)(C)NP(=O)(CO[C@H](C)Cn2cnc3c(N)ncnc32)NC(C)(C)C(=O)OC[C@H]2CC[C@H](CCC)CC2)CC1 [Example 92]
7 | C[C@H](Cn1cnc2c(N)ncnc21)OCP(=O)(NC(C)(C)C(=O)OCC1CC2(CCC2)C1)NC(C)(C)C(=O)OCC1CC2(CCC2)C1 (stereo partly drawn) [Example 50, Bis(spiro[3.3]heptan-2-ylmethyl) 2,2′-(((((1-(6-amino-9H-purin-9-yl)propan-2-yl)oxy)methyl)phosphoryl)bis(azanediyl))(R)-bis(2-methylpropanoate)]
3 | C[C@H](Cn1cnc2c(N)ncnc21)OCP(=O)(NC(C)(C)C(=O)OCC1CCC(F)(F)CC1)NC(C)(C)C(=O)OCC1CCC(F)(F)CC1 [Example 88, Bis((4,4-difluorocyclohexyl)methyl) 2,2′-(((((1-(6-amino-9H-purin-9-yl)propan-2-yl)oxy)methyl)phosphoryl)bis(azanediyl))(R)-bis(2-methylpropanoate)]
7 | C[C@H](Cn1cnc2c(N)ncnc21)OCP(=O)(NC(C)(C)C(=O)OC1CCC(C)(C)CC1)NC(C)(C)C(=O)OC1CCC(C)(C)CC1 [Example 44, Bis(4,4-dimethylcyclohexyl) 2,2′-(((((1-(6-amino-9H-purin-9-yl)propan-2-yl)oxy)methyl)phosphoryl)bis(azanediyl))(R)-bis(2-methylpropanoate)]
2 | C[C@H](Cn1cnc2c(N)ncnc21)OCP(=O)(NC(C)(C)C(=O)OC1CC(C)(C)C1)NC(C)(C)C(=O)OC1CC(C)(C)C1 [Example 42, Bis(3,3-dimethylcyclobutyl) 2,2′-(((((1-(6-amino-9H-purin-9-yl)propan-2-yl)oxy)methyl)phosphoryl)bis(azanediyl))(R)-bis(2-methylpropanoate)]
23 | C[C@H](Cn1cnc2c(N)ncnc21)OCP(=O)(NC(C)(C)C(=O)OCC1CC2(C1)CC1(CCC1)C2)NC(C)(C)C(=O)OCC1CC2(C1)CC1(CCC1)C2 [Example 57, Bis(dispiro[3.1.3^6.1^4]decan-2-ylmethyl) 2,2′-(((((1-(6-amino-9H-purin-9-yl)propan-2-yl)oxy)methyl)phosphoryl)bis(azanediyl))(R)-bis(2-methylpropanoate)]
3 | C[C@H](Cn1cnc2c(N)ncnc21)OCP(=O)(NC(C)(C)C(=O)OC1CC2(CCC2)C1)NC(C)(C)C(=O)OC1CC2(CCC2)C1 (stereo partly drawn) [Example 41, Di(spiro[3.3]heptan-2-yl) 2,2′-(((((1-(6-amino-9H-purin-9-yl)propan-2-yl)oxy)methyl)phosphoryl)bis(azanediyl))(R)-bis(2-methylpropanoate)]
5 | C[C@H](Cn1cnc2c(N)ncnc21)OCP(=O)(NC(C)(C)C(=O)OC[C@H]1CC[C@H](C)CC1)NC(C)(C)C(=O)OC[C@H]1CC[C@H](C)CC1 [Example 91, Bis((trans-4-methylcyclohexyl)methyl) 2,2′-((((((R)-1-(6-amino-9H-purin-9-yl)propan-2-yl)oxy)methyl)phosphoryl)bis(azanediyl))bis(2-methylpropanoate)]
> 500 | CCCCCCOC(=O)C(C)(C)NP(=O)(CO[C@H](C)Cn1cnc2c(N)ncnc21)NC(C)(C)C(=O)OC(C)C1CC1 (stereo partly drawn) [Example 81, 1-Cyclopropylethyl 2-((((((R)-1-(6-amino-9H-purin-9-yl)propan-2-yl)oxy)methyl)((1-(hexyloxy)-2-methyl-1-oxopropan-2-yl)amino)phosphoryl)amino)-2-methylpropanoate]

Continued, compound first:

Structure (SMILES) | EC50 [nM]
CCCCCCOC(=O)C(C)(C)NP(=O)(CO[C@H](C)Cn1cnc2c(NC(=O)OC(C)(C)CC(=O)OCc3oc(=O)oc3C)ncnc21)NC(C)(C)C(=O)OCCCCCC [Example 101, Dihexyl 2,2′-(((((1-(6-((((2-methyl-4-((5-methyl-2-oxo-1,3-dioxol-4-yl)methoxy)-4-oxobutan-2-yl)oxy)carbonyl)amino)-9H-purin-9-yl)propan-2-yl)oxy)methyl)phosphoryl)bis(azanediyl))(R)-bis(2-methylpropanoate)] | 12
CCC(CC)COC(=O)C(C)(C)NP(=O)(CO[C@H](C)Cn1cnc2c(N)ncnc21)NC(C)(C)C(=O)OCC(CC)CC [Example 2, Bis(2-ethylbutyl) 2,2′-(((((1-(6-amino-9H-purin-9-yl)propan-2-yl)oxy)methyl)phosphoryl)bis(azanediyl))(R)-bis(2-methylpropanoate)] | 4
C[C@H](Cn1cnc2c(N)ncnc21)OCP(=O)(NC(C)(C)C(=O)OCCCCC(F)(F)F)NC(C)(C)C(=O)OCCCCC(F)(F)F [Example 25, Bis(5,5,5-trifluoropentyl) 2,2′-(((((1-(6-amino-9H-purin-9-yl)propan-2-yl)oxy)methyl)phosphoryl)bis(azanediyl))(R)-bis(2-methylpropanoate)] | 8
CCCCCCOC(=O)C(C)(C)NP(=O)(CO[C@H](C)Cn1cnc2c(NC(=O)OCC(=O)OCc3oc(=O)oc3C)ncnc21)NC(C)(C)C(=O)OCCCCCC [Example 95, Dihexyl 2,2′-(((((1-(6-(((2-((5-methyl-2-oxo-1,3-dioxol-4-yl)methoxy)-2-oxoethoxy)carbonyl)amino)-9H-purin-9-yl)propan-2-yl)oxy)methyl)phosphoryl)bis(azanediyl))(R)-bis(2-methylpropanoate)] | 27
C[C@H](Cn1cnc2c(N)ncnc21)OCP(=O)(NC(C)(C)C(=O)OC(C)(C)C)NC(C)(C)C(=O)OC(C)(C)C [Example 9, Di-tert-butyl 2,2′-(((((1-(6-amino-9H-purin-9-yl)propan-2-yl)oxy)methyl)phosphoryl)bis(azanediyl))(R)-bis(2-methylpropanoate)] | 169
CCCCCCOC(=O)C(C)(C)NP(=O)(CO[C@H](C)Cn1cnc2c(N)ncnc21)N[C@]1(C(=O)OCCCCCC)C[C@H]1CC (stereo partly drawn) [Example 16, Hexyl (1R,2R)-1-((((((R)-1-(6-amino-9H-purin-9-yl)propan-2-yl)oxy)methyl)((1-(hexyloxy)-2-methyl-1-oxopropan-2-yl)amino)phosphoryl)amino)-2-ethylcyclopropane-1-carboxylate] | 35
CCC(CC)CCOC(=O)C(C)(C)NP(=O)(CO[C@H](C)Cn1cnc2c(N)ncnc21)NC(C)(C)C(=O)OCCC(CC)CC [Example 7, Bis(3-ethylpentyl) 2,2′-(((((1-(6-amino-9H-purin-9-yl)propan-2-yl)oxy)methyl)phosphoryl)bis(azanediyl))(R)-bis(2-methylpropanoate)] | 9
C[C@H](Cn1cnc2c(N)ncnc21)OCP(=O)(NC(C)(C)C(=O)O[C@H]1C[C@@H](C(C)(C)C)C1)NC(C)(C)C(=O)O[C@H]1C[C@@H](C(C)(C)C)C1 [Example 51, Bis((1S,3S)-3-(tert-butyl)cyclobutyl) 2,2′-((((((R)-1-(6-amino-9H-purin-9-yl)propan-2-yl)oxy)methyl)phosphoryl)bis(azanediyl))bis(2-methylpropanoate)] | 8
CC(C)OC(=O)C(C)(C)NP(=O)(CO[C@H](C)Cn1cnc2c(N)ncnc21)NC(C)(C)C(=O)OC(C)C [Example 43, Diisopropyl 2,2′-(((((1-(6-amino-9H-purin-9-yl)propan-2-yl)oxy)methyl)phosphoryl)bis(azanediyl))(R)-bis(2-methylpropanoate)] | 20
CCCCCCCOC(=O)C(C)(C)NP(=O)(CO[C@H](C)Cn1cnc2c(N)ncnc21)NC(C)(C)C(=O)OCCCCCCC [Example 66, Diheptyl 2,2′-(((((1-(6-amino-9H-purin-9-yl)propan-2-yl)oxy)methyl)phosphoryl)bis(azanediyl))(R)-bis(2-methylpropanoate)] | 9
CCC(CC)COC(=O)C1(NP(=O)(CO[C@H](C)Cn2cnc3c(N)ncnc32)NC2(C(=O)OCC(CC)CC)CC2)CC1 [Example 70, Bis(2-ethylbutyl) 1,1′-(((((1-(6-amino-9H-purin-9-yl)propan-2-yl)oxy)methyl)phosphoryl)bis(azanediyl))(R)-bis(cyclopropane-1-carboxylate)] | > 500
C[C@H](Cn1cnc2c(N)ncnc21)OCP(=O)(NC(C)(C)C(=O)O[C@@H]1C[C@@H]2C[C@@H]2C1)NC(C)(C)C(=O)O[C@@H]1C[C@@H]2C[C@@H]2C1 [Example 60, Di((1R,3R,5S)-bicyclo[3.1.0]hexan-3-yl) 2,2′-((((((R)-1-(6-amino-9H-purin-9-yl)propan-2-yl)oxy)methyl)phosphoryl)bis(azanediyl))bis(2-methylpropanoate)] | 3
CCCCCCOC(=O)C(C)(C)NP(=O)(CO[C@H](C)Cn1cnc2c(NC(=O)OCC(C)(C)C(=O)OCc3oc(=O)oc3C)ncnc21)NC(C)(C)C(=O)OCCCCCC [Example 98, Dihexyl 2,2′-(((((1-(6-(((2,2-dimethyl-3-((5-methyl-2-oxo-1,3-dioxol-4-yl)methoxy)-3-oxopropoxy)carbonyl)amino)-9H-purin-9-yl)propan-2-yl)oxy)methyl)phosphoryl)bis(azanediyl))(R)-bis(2-methylpropanoate)] | 213
